From ChEMBL document CHEMBL4813953, “Kinetics-Driven Drug Design Strategy for Next-Generation Acetylcholinesterase Inhibitors to Clinical Candidate” (J Med Chem, 2021)
Calls of active or inactive are those of the source. No cut-off for these calls is given here.

Columns and labels:
Mus musculus [1] = experiment: Cognitive enhancing effect in mouse model of scopolamine-induced memory impairment assessed as reduction in number of errors at 1 to 2 mg/kg, IG QD for 3 days by channel water maze test; format: functional, organism-based; conditions: dose 1-2 mg/kg, time 3.0 day
[2] = Cardiotoxicity in Beagle dog assessed as effect on PR interval at 0.1 to 1 mg/kg; format: toxicity, organism-based, Canis lupus familiaris; conditions: in vivo, dose 0.1-1 mg/kg
[3] = Mutagenecity against CHL cells; format: ADME, cell-based, Cricetulus griseus; conditions: chinese hamster
Mus musculus [4] = experiment: Cognitive enhancing effect in mouse model of scopolamine-induced memory impairment assessed as reduction in escape latency time at 0.5 to 2 mg/kg, IG QD for 3 days by channel water maze test; format: functional, organism-based; conditions: dose 0.5-2 mg/kg, time 3.0 day
Acetylcholinesterase = Acetylcholinesterase (Homo sapiens, UniProt P22303); experiment: Binding affinity to CM5 sensor chip immobilized recombinant human AChE assessed as dissociation constant at 298.15 K by surface plasmon resonance assay
[5] = MRT (0 to infinity) in Sprague-Dawley rat at 0.5 mg/kg, iv; format: ADME, organism-based; conditions: in vivo
[6] = Cmax in Sprague-Dawley rat plasma at 10 mg/kg, po; format: ADME, organism-based; parameters: route oral, dose 10 mg/kg

Chain of Acetylcholinesterase (P22303 whole entry): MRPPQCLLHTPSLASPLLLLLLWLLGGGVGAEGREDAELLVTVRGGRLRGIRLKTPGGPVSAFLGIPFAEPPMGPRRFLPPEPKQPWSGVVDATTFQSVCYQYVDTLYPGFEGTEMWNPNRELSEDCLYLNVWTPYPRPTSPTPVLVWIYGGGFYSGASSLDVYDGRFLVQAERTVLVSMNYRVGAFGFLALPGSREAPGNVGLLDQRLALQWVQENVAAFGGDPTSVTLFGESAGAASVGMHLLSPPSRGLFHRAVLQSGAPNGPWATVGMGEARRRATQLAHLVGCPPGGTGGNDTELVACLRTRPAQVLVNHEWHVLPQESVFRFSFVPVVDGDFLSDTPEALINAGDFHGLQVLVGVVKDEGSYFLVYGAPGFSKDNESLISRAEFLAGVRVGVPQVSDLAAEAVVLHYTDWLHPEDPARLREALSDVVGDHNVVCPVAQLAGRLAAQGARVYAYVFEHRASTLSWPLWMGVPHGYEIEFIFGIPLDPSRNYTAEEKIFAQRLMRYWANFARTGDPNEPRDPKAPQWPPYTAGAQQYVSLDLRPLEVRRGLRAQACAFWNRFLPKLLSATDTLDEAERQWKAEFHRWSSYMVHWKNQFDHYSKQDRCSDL

For `COc1cc2c(cc1OC)C(=O)C(CC1(F)CCN(Cc3ccccc3F)CC1)C2` (configuration not stated), the Activity (Mus musculus [1]) was “Active”, the Activity [2] was “Non-Toxic” and the Activity [3] was “Non-Toxic”. For the same molecule, the Activity (Mus musculus [4]) was “Active”, the Kd (Acetylcholinesterase) was 3.5 nM and the MRT inf [5] was 5.21 h. The Cmax [6] was 215 ng/mL.
